Values joined by “and” are separate entries in the source; they are usually repeats but may differ in a detail not shown here. Equal entries are not always repeated.
Assays:
[1] = test system: spinal nerve ligation model rats; experiment: Escape threshold of contact stimulus, von Frey filaments (contact allodynia) in rat spinal nerve ligation model; type: in vivo
Experimental: (§1) Male rats were used in the experiment. Spinal nerve ligation models were made in accordance with the method of Kim & Chung (Kim, S. H. & Chung, J. M., An experimental model for peripheral neuropathy produced by segmental spinal nerve ligation in the rat, Pain, 50, 355-363, 1992). Namely, the fifth lumber nerve in one side was strongly ligated with silken threads.
(§2) More specifically, the models were made in the following manner.
(§3) After intraperitoneally administering 40 mg/kg (liquid volume 0.8 ml/kg) of pentobarbital (Nenbutal Injection (trade name), Dainippon Pharmaceutical Co., Ltd.), a rat was fixed in the dorsal position under anesthesia and the abdomen was incised in the median line with scissors. The intestines and the like were pushed aside with sterilized gauze and the abdominal aorta and the abdominal vein were confirmed. Then, the muscle located immediately below the iliolumbar vein was cleaved with tweezers. After confirming the fourth lumber nerve and the fifth lumber nerve in the muscle, the fifth lumber nerve (L5) was ligated with 6-0 silken threads. Subsequently, the intestines having been pushed away were returned to the original positions. 5 ml of physiological saline (otsuka Pharmaceutical Factory, Inc.) containing ampicillin sodium (Viccillin for Injection (trade name), Meiji Seika Kaisha, Ltd.) (ampicillin concentration: 20 mg/ml) was poured into the peritoneal cavity, and the abdominal muscles and skin were sutured with a nylon thread.
From immediately after the spinal nerve ligation, 30 mg/kg of (2R)-2-propyloctanoic acid was orally administered once a day for 14 days (14 times in total). Also, vehicle control was administered in the same manner.
(3-2) Measurement of Escape Threshold of Contact Stimulus (Evaluation of Contact Allodynia)
On the next day of the final administration, the escape threshold of a contact stimulus was measured. Namely, filaments (von Frey filaments: VFF) were pressed against right and left footpads from the lower side. Then, the VFF indication at the occurrence of an escape response was recorded and converted into weight (g).

[2] = test system: spinal nerve ligation model rats; experiment: Latent time of pain response to heat stimulus (heat hyperalgesia) in rat spinal nerve ligation model; type: in vivo
Experimental: as §1, §2, §3
From immediately after the spinal nerve ligation, 30 mg/kg of (2R)-2-propyloctanoic acid was orally administered once a day for 14 days (14 times in total). Also, vehicle control was administered in the same manner. […]
On the next day of the final administration, the latent time of heat stimulus was measured. Namely, right and left footpads were irradiated with infrared light of a halogen lamp from the lower side, and the time until the occurrence of an escape response (the latent time of pain reaction: sec) was measured.

[3] = test system: dogs; settings: dog, in vivo, iv, 100 mg/kg
Excerpt: Since the toxicity of (2R)-2-propyloctanoic acid, a salt thereof or a prodrug thereof is extremely low, it can be considered to be sufficiently safe for medicinal uses.

[4] = 30 mg/kg orally once a day for 14 days from immediately after L5 ligation, measured next day after final administration, injured (operated-on) side
[5] = 30 mg/kg orally once a day for 14 days from immediately after L5 ligation, measured next day after final administration, normal (opposite) side
[6] = 30 mg/kg orally, 14 days, injured side vs vehicle control, p<0.01 Welch test

In the case of `CCCCCC[C@@H](CCC)C(=O)O` [(2R)-2-propyloctanoic acid], the “Escape threshold of contact stimulus (g) Injured side” value [1, 4] was 14.7 g and 14.7 ± 12.7 g, the “Escape threshold of contact stimulus (g) Normal side” value [1, 5] was 66.1 g and 66.1 ± 29.8 g and the “Analgesic effect on contact allodynia” value [1, 6] was “an analgesic effect on contact allodynia was confirmed”. The “Latent time of pain response (sec) Injured side” value [2, 4] was 13.61 s and 13.61 ± 6.76 s, the “Latent time of pain response (sec) Normal side” value [2, 5] was 19.00 s and 19.00 ± 5.58 s and the “Analgesic effect on heat hyperalgesia” value [2, 6] was “an analgesic effect on heat hyperalgesia was confirmed”. For the same molecule, the Fatal cases [3] was “no fatal case was observed”.

Reference: patent US8975298B2, “Therapeutic agent for pain” (ONO Pharmaceutical Co., Ltd., priority 2005, dated 2015)
